Data as given in patent USRE37781E1, “Substituted cyclic carbonyls and derivatives thereof useful as retroviral protease inhibitors” (DuPont Pharmaceuticals Company, priority 1991, dated 2002).
Values after ≈ are worked out from the molar mass of the structure shown. Like-named read-outs stand apart in the source and are kept apart here.

How the values were obtained:
HIV-1 (RF) in MT-2 cells = test: microbe, parasite or virus in culture; format: cell-based
Summary of the method: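 Read-out: gag and pol viral RNA captured by 5′-biotinylated oligonucleotides on streptavidin-coated wells, detected with alkaline phosphatase-linked reporter oligonucleotides, calibrated against BH10 in vitro transcripts. Virus stocks (RF, MN, IIIB) come from H9 cultures; MT-2 host cells kept in RPMI 1640, 5% FCS.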

[1] = molecular target: single-chain tethered dimer of HIV protease (Human immunodeficiency virus 1, UniProt P04585); test: biochemical; format: biochemical
Protocol: HIV Protease Inhibition Assay—HPLC Method
Active protease was prepared as described therein by extraction with 67% acetic acid, dilution 33-fold with water, dialysis against water and then against a “refolding buffer” consisting of 20 mM MES, 1 mM dithiothreitol and 10% glycerol. Protease was stored as a stock preparation at 10 uM in refolding buffer.
Substrate: Peptide of sequence: aminobenzoyl-Ala-Thr-His-Gln-Val-Tyr-Phe(NO2)-Val-Arg-Lys-Ala containing p-nitrophenylalanine, was prepared by solid phase synthesis as previously described Cheng et al., op.cit. Stock solutions of 2 mM substrate were prepared in DMSO.
Inhibitory compounds were dissolved in sufficient DMSO to make 3 mM stock solutions. All further dilutions were prepared in “assay buffer”: 1M NaCl, 50 mM MES, pH 5.5, 1 mM EDTA, 1 mM DTT, […] glycerol.
Enzyme reaction: In a 2 ml screw-cap centrifuge tube were added 50 ul protease (final concentration 0.25 nM) and 0.1 ml inhibitory compound (final concentration […]). After 15 min preincubation at room temperature, the reaction was started with the addition of 0.05 ml substrate (final concentration 5 uM). Incubation was carried out at 30 C. for 1 hr. The reaction was stopped with 1 ml 0.1M ammonium hydroxide.
HPLC measurement of product formation: The product (aminobenzoyl-Ala-Thr-His-Gln-Val-Tyr) was separated from substrate on a Pharmacia MonoQ anion exchange column. The injection volume was 0.2 ml. The mobile phases were: A (20 mM trisHCl, pH 9.0, 0.02% sodium Azide, 10% acetonitrile), B (20 mM tris HCl, pH 9.0, 0.02% sodium azide, 0.5M ammonium formate, 10% acetonitrile). The mobile phases were pumped at 1 ml/min, with a gradient from 0 to 30% B in 5 min, 100% B for 4 min to wash the column, and a re-equilibration for 4 min. The retention time of the product was 3.6 min. Detection with a Shimadzu model RF535 fluorescence monitor was at 330 nm (excitation) and 430 (emission).

HIV protease = molecular target: T1, HIV protease (Human immunodeficiency virus type 1 group M subtype B, UniProt P04585); test: biochemical; parameters: species or system HIV-1
T1 construct: plasmid containing HIV protease under the control of an inducible T7 promoter; made in house; host or cells: E. coli (inclusion bodies, T7 promoter)
Protocol: HIV Protease Inhibition Assay—Spectroscopic Method
Inclusion bodies were solubilized in 8M urea, 50 mM tris pH 8.0. Protease activity was recovered by dilution 20-fold into buffer containing 50 mM sodium acetate pH 5.5, 1 mM EDTA, 10% glycerol and 5% ethylene glycol. Enzyme was used at a final concentration of 1.0-10 ug/ml.
Stock solutions of 10 mM were prepared in DMSO.
All further dilutions were done in DMSO.

[2] = test system: HIV(3B) or HIV(RF) in MT-2 cells; format: cell-based; parameters: scale not given here; conditions: Table E, whole cell infectivity assay
Protocol: HIV Low Multiplicity Assay
Materials: MT-2, a human T-cell line, was cultured in RPMI medium supplemented with 5% (v/v) heat inactivated fetal calf serum (FCS), L-glutamine and gentamycin (GIBCO). Human immunodeficiency virus strains HIV (3B) and HIV (RF) were propagated in H-9 cells in RPMI with 5% FCS. XTT, benzene-sulfonic acid, 3,3′-[1-[(phenylamino) carbonyl]-3,4-tetrazolium]bis (4-methoxy-6nitro)-, sodium salt, was obtained from Starks Associates, Inc.
Method: Test compounds were dissolved in dimethylsulfoxide to 5 mg/ml and serially diluted into RPMI medium to ten times the desired final concentration. MT-2 cells (5×10^4/0.1 mL) were added to each well of a 96 well culture plate and 0.02 mL of the appropriate test compound solution was added to the cells such that each compound concentration was present in two wells. The cells and compounds were allowed to sit for 30 minutes at room temperature. HIV(3B) or HIV(RF) (−5×10^5 plaque foaming units/mL) was diluted in medium and added to the cell and compound mixtures to give a multiplicity of infection of 0.01 plaque forming unit/cell. The mixtures were incubated for 7 days at 36° C., during which time the virus replicated and caused the death of unprotected cells. The percentage of cells protected from virus induced cell death was determined by the degree of metabolism of the tetrazolium dye, XTT. In living cells, XTT was metabolized to a colored formazan product which was quantitated spectrophotometrically at 450 nm. The amount of colored formazan was proportional to the number of cells protected from virus by the test compound. The concentration of compound protecting either 50% (IC50) or 90% (IC90) with respect to an uninfected cell culture was determined.

HIV-1 protease = test: HIV-1 Protease Transgenic Mouse Model (cataract phenotype); conditions: Tg 61 mouse
Method: The HIV protease inhibitory activity of the presently claimed compounds was measured in this animal system as a delay or prevention of the onset of cataract appearance in the test animals.
Plasmid Construction: The mammalian expression vector pMSG (Pharmacia) was modified by replacing the MMTV LTR promoter with the 412-bp Bgl II-BamHI mouse alpha A-cryatallin promoter fragment (Chepelinsky et al. Proc. Natl. Acad. Sci. USA, 1985, 82, 2334-2338). The SV40 early splice and polyadenylation signals were retained and this plasmid was renamed pCSV 19. A single chain, tethered dimeric form of the active HIV-1 protease gene (BAA; Cheng et al., Proc. Natl. Acad. Sci. USA, 1990, 87, 9660-9664 and Cheng et al., Gene, 1990, 87, 243-248) was modified for mammalian cell expression by replacing nucleotides 7 to 90 with [sequence]. The gene was cut with EcoRI and Hind III and after blunt-end repair cloned into the Sma I site of the pCSV 19, thus producing PCSV 19-BAA.
Construction of Transgenic Mice: 2.5 kb Hind III fragments from the pCSV 19-BAA and pCSV 19-BA*A* plasmids were isolated (modified from Sambrook at al., Molecular Cloning, A Laboratory Manual, 2nd Ed., 1989, Cold Spring Harbor Laboratory) and used for the construction of transgenic mice using the pronuclei injection method (Hogan et al., Manipulating the Mouse Embryo. A Laboratory Manual, 1986, Cold Spring Harbor Laboratory). Mice were screened for the HIV-1 protease transgene by either Southern blot or Polymerase Chain Reaction (PCR) methods. Mice of the FVB/N strain (Taketo et al., Proc. Natl. Acad Sci. USA, 1991, 88, 2065-2069) were used for the construction and breeding of these transgenic mice, and were originally obtained from Dr. Carl Hansen (NIH) and bred in our facility. Subsequently, the mice were purchased from Charles River Laboratory (Portage, Mich.).
Identification of Transgenic Mice: Southern blot analysis (Sambrook et al. vide supra) was performed on DNA purified from tail biopsies (Hogan et al. vide supra) using the 2.5 kb Hind III fragment from pCSV 19-BAA as the probe (^32P labeled). DNA for PCR was prepared from tail biopsies by overnight digestion with 0.5 mg of Proteinase K (Boehringer-Manheim GmbH) in 100 μl of water and 0.025% SDS. PCR primers specific for the mouse c-fos gene and the transgene's SV40 segment were used as an internal control in some samples. Each PCR reaction contained 1-2 μl of tail digest, 60 μg of each primer, 200 μM of Perkin Elmer Cetus dATP, dCTP, dGTP,TTP (buffered at pH 8.8) and up to 5 units of Perkin Elmer Cetus Ampli/Taq polymerase. The reactions were run on a Perkin Elmer DNA Thermal Cycler as follows: 1 min at 94° C., 3 min at 67° C. (2 sec extension/cycle) for 35 cycles. The PCR products were analyzed by gel electrophoresis (1% agarose,0.5 μg/ml of ethidium bromide), and tail samples with a 625 PCR fragment (SV40 specific) were considered positive for the transgene. Mice bearing the active HIV-1 protease transgene were also identified by their cataract phenotype.
Dosing Regimen: Compounds to be tested were pulverized by manual grinding with mortar and pestle. Just prior to dosing of mice, the compound was suspended in 0.25% methylcellulose/Tween 80 solution, homogenized in a manual Dounce homogenizer and sonicated for 10 min in a sonicating water bath. The volume of suspension was adjusted so that the amount of compound required for dosing one mouse was 0.1-0.2 mL. In order to maintain the required mg/kg dose, an average mouse weight for each group was determined twice a week and the amount of compound adjusted accordingly. Intraperitoneal (ip) and oral (po) dosing was performed using 25 G ⅝ in. injection and 20 G 1½ in. feeding needles, respectively. The dosing was performed twice a day (bid) and the doses were administered 6-8 h apart.

[3] = Human immunodeficiency virus 1, MT2, HIV RNA assay, HIV-1 infected MT-2 cells, class symbols, read-out: IC90

SMILES	IC90 (HIV-1 (RF) in MT-2 cells; [3]) [µg/mL]	melting point [°C]	Ki [1] [nM]	other results
CCOc1cccc(CN2C(=O)N(Cc3cccc(OCC)c3)C(Cc3ccccc3)C(O)C(O)C2Cc2ccccc2)c1 (centres unmarked) [Example 5N]	> 100	185 to 186	10 to 1000	–
O=C1N(Cc2cccc(C=NO)c2)C(Cc2ccccc2)C(O)C(O)C(Cc2ccccc2)N1Cc1cccc(C=NO)c1 (centres unmarked) [Example 6C]	< 10	185 to 189	< 10	–
O=C1N(Cc2cccc(CO)c2)C(Cc2ccccc2)C(O)C(O)C(Cc2ccccc2)N1Cc1cccc(CO)c1 (centres unmarked) [Example 5S]	< 10	94 to 95	< 10	–
O=C1N(Cc2ccc3ccccc3c2)C(Cc2ccccc2)C(O)C(O)C(Cc2ccccc2)N1Cc1ccccn1 (centres unmarked) [Example 4Y]	< 10	165 to 166	10 to 1000	–
CC(C)=CCN1C(=O)N(Cc2ccccc2)C(Cc2ccccc2)C(O)C(O)C1Cc1ccccc1 (centres unmarked) [Example 3Y]	< 10	173 to 174	< 10	–
O=C1N(Cc2ccncc2)C(Cc2ccccc2)C(O)C(O)C(Cc2ccccc2)N1Cc1ccc2ccccc2c1 (centres unmarked) [Example 4Z]	< 10	118 to 121	< 10	–
O=C1NC(Cc2ccccc2)C(O)C(O)C(Cc2ccccc2)N1Cc1ccc(F)cc1 (centres unmarked) [Example 6ZF]	< 10	188.9	< 10	–
O=C1N(Cc2cccc([N+](=O)[O-])c2)C(Cc2ccccc2)C(O)C(O)C(Cc2ccccc2)N1Cc1cccc([N+](=O)[O-])c1 (centres unmarked) [Example 6Z]	–	248.3	< 10	IC90 (HIV-1 (RF) in MT-2 cells; Human immunodeficiency virus 1, MT2): < 10 µg/mL
O=C1N(Cc2ccc(F)cc2)C(Cc2ccccc2)C(O)C(O)C(Cc2ccccc2)N1Cc1ccc2ccccc2c1 (centres unmarked) [Example 5Q]	< 10	105 to 107	< 10	–
CC(C)=CCN1C(=O)N(CC=C(C)C)C(Cc2ccccc2)C(O)C(O)C1Cc1ccccc1 (centres unmarked) [Example 1AC]	–	160 to 163	–	Ki (HIV protease; Table 1a, read-out: Ki): < 10 nM; IC90 [2]: + + +
N#Cc1cccc(CN2C(=O)N(Cc3cccc(C#N)c3)C(Cc3ccccc3)C(O)C(O)C2Cc2ccccc2)c1 (centres unmarked) [Example 4P]	< 10	225 to 227	< 10	–
O=C1N(Cc2ccc3ccccc3c2)C(Cc2ccccc2)C(O)C(O)C(Cc2ccccc2)N1CC1CCCC1 (centres unmarked) [Example 4L]	< 10	89 to 92	< 10	–
C=CCOc1cccc(CN2C(=O)N(Cc3cccc(OCC=C)c3)C(Cc3ccccc3)C(O)C(O)C2Cc2ccccc2)c1 (centres unmarked) [Example 5L]	> 100	170 to 172	< 10	–
O=Cc1ccc(CN2C(=O)N(Cc3ccc(C=O)cc3)C(Cc3ccccc3)C(O)C(O)C2Cc2ccccc2)cc1 (centres unmarked) [Example 5X]	< 10	90 to 91	< 10	–
O=C1N(Cc2ccc3ccccc3c2)C(Cc2ccccc2)C(O)C(O)C(Cc2ccccc2)N1CC1CC1 (centres unmarked) [Example 4K]	< 10	175 to 178	< 10	–
CCCCN1C(=O)N(CCCC)C(Cc2ccccc2)C(O)C(O)C1Cc1ccccc1 (centres unmarked) [Example 1Z]	–	–	–	Ki (HIV protease; Table 1a, read-out: Ki): < 10 nM; IC90 [2]: + + +
CCOCCN1C(=O)N(CCOCC)C(Cc2ccccc2)C(O)C(O)C1Cc1ccccc1 (centres unmarked) [Example 3R]	> 100	148 to 150	> 1000	–
N#Cc1ccc(CN2C(=O)N(Cc3ccc(C#N)cc3)C(Cc3ccccc3)C(O)C(O)C2Cc2ccccc2)cc1 (centres unmarked) [Example 5W]	< 10	140 to 143	< 10	–
O=C1N(CC2CC2)[C@H](Cc2ccccc2)[C@H](O)[C@@H](O)[C@@H](Cc2ccccc2)N1CC1CC1 [Example 1X]	–	–	–	Cataract Density (% of control) (HIV-1 protease; 5 mg/kg ip preg days 11-18): 39.8 % of control; Cataract Density (% of control) (HIV-1 protease; 15 mg/kg ip preg days 11-18): 28.8 % of control; Ki (HIV protease; Table 1a, read-out: Ki): < 10 nM; IC90 [2]: + + +
O=C1N(Cc2ccccc2)C(Cc2ccccc2)C(O)C(O)C(Cc2ccccc2)N1Cc1ccccc1 (centres unmarked) [Example 1AQ]	–	–	–	Cataract Density (% of control) (HIV-1 protease; 60 mg/kg ip preg days 11-18): 46.6 % of control; Cataract Density (% of control) (HIV-1 protease; 85 mg/kg ip preg days 11-18, 17-18): 20.6 % of control; Ki (HIV protease; Ki): < 10 nM; IC90 [2]: + + +
O=C1N(Cc2ccccc2)C(Cc2ccccc2)C(O)C(O)C(Cc2ccccc2)N1Cc1ccc2ccccc2c1 (centres unmarked) [Example 4M]	< 10	90 to 92	< 10	–
O=C1N(Cc2cccc(Cl)c2)C(Cc2ccccc2)C(O)C(O)C(Cc2ccccc2)N1Cc1cccc(Cl)c1 (centres unmarked) [Example 6X]	< 10	210.3	< 10	–
O=C1N(Cc2cccnc2)C(Cc2ccccc2)C(O)C(O)C(Cc2ccccc2)N1Cc1ccc2ccccc2c1 (centres unmarked) [Example 5H]	< 10	94 to 96	< 10	–
C=CCN1C(=O)N(CC=C)C(Cc2ccccc2)C(O)C(O)C1Cc1ccccc1 (centres unmarked) [Example 1C]	–	–	–	Ki (HIV protease; Ki, Table 1a): < 10 nM; IC90 [2]: + + +
CCCCN1C(=O)N(Cc2ccccc2)C(Cc2ccccc2)C(O)C(O)C1Cc1ccccc1 (centres unmarked) [Example 3V]	< 10	89 to 91	< 10	–
C=CCN1C(=O)N(Cc2ccccn2)C(Cc2ccccc2)C(O)C(O)C1Cc1ccccc1 (centres unmarked) [Example 5C]	< 10	160 to 162	10 to 1000	–
O=C1N(Cc2cc(Cl)cc(Cl)c2)C(Cc2ccccc2)C(O)C(O)C(Cc2ccccc2)N1Cc1cc(Cl)cc(Cl)c1 (centres unmarked) [Example 6ZJ]	10 to 100 (≈ 15.5 to 155 µM)	231.1	10 to 1000	–
CC(C)CCN1C(=O)N(CCC(C)C)C(Cc2ccccc2)C(O)C(O)C1Cc1ccccc1 (centres unmarked) [Example 1AH]	–	194 to 195	–	Ki (HIV protease; Table 1a, read-out: Ki): < 10 nM; IC90 [2]: + + +
CCCN1C(=O)N(CCC)C(Cc2ccccc2)C(O)C(O)C1Cc1ccccc1 (centres unmarked) [Example 1AF]	–	180 to 182	–	IC90 [2]: + + +
O=C1N(Cc2cc(F)cc(F)c2)C(Cc2ccccc2)C(O)C(O)C(Cc2ccccc2)N1Cc1cc(F)cc(F)c1 (centres unmarked) [Example 6ZC]	10 to 100 (≈ 17.3 to 173 µM)	167.9	10 to 1000	–
